Assay results from patent US20140350081A1, “INSECT G-COUPLED RECEPTORS USEFUL AS TARGETS FOR INSECTICIDES AND COMPOUNDS AND REAGENTS IDENTIFIED USING THE SAME” (priority 2011, published 2014).
Read-outs that look alike come from different tables or passages of the source.

Assays:
[1] = system: adult male Blatella germanica; assay: Cockroach contact assay (topical application); format: in vivo; details: 200 mM compound
Source text: (§1) A series of whole organism bioassays was developed to further evaluate the toxicity of chemistries to a range of agricultural, veterinary and public health pests and non-target insects (Tables 12 and 13). These assays are designed to rapidly explore the biological activity spectrum of chemistries as well as to facilitate initial investigations of the mode of action of insecticidal compounds. Briefly, assays were developed for the German cockroach (Blatella germanica, urban pest), termite (Reticulitermes flavipes; urban pest), lone star tick (Amblyomma americana; veterinary and public health pest), soybean aphid (Aphis glycines, agricultural pest) and honeybee (Apis mellifera; beneficial, non-target insect). The assays were designed to test the toxicity and speed of kill of multiple chemistries on contact. Each of these assays was performed as a single point dose experiment in triplicate using either topical application of compound to the ventral thorax ([…]; 50-80 μg effective dose depending on compound) as is the case for our cockroach and honeybee assays, or 10 second immersion in a solution of the compound diluted in water or DMSO:EtOH to a final concentration of 100 μM. The assays were conducted in 24-well plate format with mortality assessment following incubation at 22° C. as described above. Commercial insecticides were incorporated in these assays to provide a positive control and permit initial comparative analyses. Lead chemistries identified in our in vivo screen have been evaluated in the cockroach and termite assays.

[2] = system: adult male Blatella germanica; assay: Cockroach assay of Table 16 (title contact assay, text feeding assay); format: in vivo; details: 200 mM compound
Source text: as §1

AaDOP2 [3] = target: T1, AaDOP2 (Aedes aegypti, UniProt H6D5H2); assay: HTRF cAMP accumulation concentration response assay (Cisbio Dynamic 2); format: cell-based; details: AaDOP2 expressing cells in the presence of dopamine; No Inhibition = <10% inhibition at 3 μM test compound; read-out: IC50 ± S.E.M. (nM), HTRF cAMP assay
T1 sequence (H6D5H2 entry or part of it): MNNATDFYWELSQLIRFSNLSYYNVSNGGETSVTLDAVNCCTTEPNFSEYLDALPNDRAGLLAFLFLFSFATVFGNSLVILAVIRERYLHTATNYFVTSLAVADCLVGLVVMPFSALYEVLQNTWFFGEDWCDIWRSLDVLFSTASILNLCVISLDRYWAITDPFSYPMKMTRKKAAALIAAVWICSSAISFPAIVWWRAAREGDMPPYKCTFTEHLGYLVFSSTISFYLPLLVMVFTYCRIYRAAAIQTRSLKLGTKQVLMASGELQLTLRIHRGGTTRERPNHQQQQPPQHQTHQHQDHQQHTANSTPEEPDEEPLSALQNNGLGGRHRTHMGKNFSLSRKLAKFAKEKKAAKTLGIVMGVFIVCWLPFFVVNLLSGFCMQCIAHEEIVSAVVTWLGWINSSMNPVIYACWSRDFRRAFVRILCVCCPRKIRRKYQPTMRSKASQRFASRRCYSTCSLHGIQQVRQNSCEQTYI

Ae. aegypti L3 larvae [4] = assay: Ae. aegypti L3 concentration response and time course assays; format: in vivo, Aedes aegypti; details: for LT50: 400 μM, L3 larval time course assay; for LC50: Aedes aegypti
Experimental: Briefly, chemistries were diluted to appropriate concentration in water and added to the wells of 24-well plates containing 5 L3 stage Ae. aegypti larvae to achieve a final concentration of 400, 200, 100, 50 and 25 μM in 1 ml sterile RO water. Chemistries were tested in quadruplicate at each concentration. […] Results reported here represent a minimum of three independent CRC experiments (i.e., n=3).

Isdop2 [5] = target: T2, Isdop2 (Ixodes scapularis, UniProt A0ACM8DGL0); assay: cell-based; details: read-out: % Inhibition (of response to dopamine), Isdop2 screen
T2 sequence (A0ACM8DGL0 entry or part of it): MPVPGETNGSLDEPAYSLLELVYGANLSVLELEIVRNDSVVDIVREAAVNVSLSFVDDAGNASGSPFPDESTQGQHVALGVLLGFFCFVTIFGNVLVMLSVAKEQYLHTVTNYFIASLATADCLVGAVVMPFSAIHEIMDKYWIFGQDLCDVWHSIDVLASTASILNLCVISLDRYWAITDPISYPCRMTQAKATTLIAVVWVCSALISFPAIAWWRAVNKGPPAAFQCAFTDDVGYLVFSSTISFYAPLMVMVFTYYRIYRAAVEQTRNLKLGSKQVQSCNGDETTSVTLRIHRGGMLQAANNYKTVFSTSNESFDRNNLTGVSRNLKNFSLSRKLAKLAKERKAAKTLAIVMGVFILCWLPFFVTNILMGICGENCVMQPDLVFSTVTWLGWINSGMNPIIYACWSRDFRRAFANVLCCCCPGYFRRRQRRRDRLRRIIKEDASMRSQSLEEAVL

Ae. aegypti L3 larvae [6] = details: 400 μM, three independent experiments
Ae. aegypti L3 larvae [7] = assay: whole plant or invertebrate; details: Aedes aegypti
Isdop1 = Isdop1 (Ixodes scapularis, UniProt A0ACM8FJJ0); assay: cAMP accumulation in HEK 293 cells transiently expressing Isdop1; format: cell-based; details: 10 μM biogenic amine, 300 nM propranolol, cAMP accumulation, mean±standard error
Isdop2 [8] = target: T2, Isdop2; assay: cAMP accumulation in HEK 293 cells transiently expressing Isdop2; format: cell-based; details: 10 μM biogenic amine, 300 nM propranolol, cAMP accumulation, mean±standard error
AaDOP2 [9] = target: T1, AaDOP2; assay: LOPAC1280 antagonist screen in HEK-CRELuc-Aadop2 cells; format: cell-based; details: for % of the SCH23390 effect: 10 μM compound, 300 nM dopamine, quadruplicate; for % inhibition of DA activity (Aedes cell-based assay screen): LOPAC1280 screen hits
[10] = system: adult Reticulitermes flavipes; assay: Termite immersion assay; format: in vivo
Source text: A series of whole organism bioassays was developed to further evaluate the toxicity of chemistries to a range of agricultural, veterinary and public health pests and non-target insects (Tables 12 and 13). These assays are designed to rapidly explore the biological activity spectrum of chemistries as well as to facilitate initial investigations of the mode of action of insecticidal compounds. Briefly, assays were developed for the German cockroach (Blatella germanica, urban pest), termite (Reticulitermes flavipes; urban pest), lone star tick (Amblyomma americana; veterinary and public health pest), soybean aphid (Aphis glycines, agricultural pest) and honeybee (Apis mellifera; beneficial, non-target insect). The assays were designed to test the toxicity and speed of kill of multiple chemistries on contact. Each of these assays was performed as a single point dose experiment in triplicate using either topical application of compound to the ventral thorax (1 μl of a […] compound solution in 1:1 v:v DMSO:EtOH vehicle; 50-80 μg effective dose depending on compound) as is the case for our cockroach and honeybee assays, or 10 second immersion in a solution of the compound diluted in water or DMSO:[…] The assays were conducted in 24-well plate format with mortality assessment following incubation at 22° C. as described above. Commercial insecticides were incorporated in these assays to provide a positive control and permit initial comparative analyses. Lead chemistries identified in our in vivo screen have been evaluated in the cockroach and termite assays.

[11] = 0.5 h, read-out: mortality of the mosquito population within 30 minutes, 400 μM, L3 larvae
[12] = 0.5 h, read-out: percent mortality 0.5 hr, 400 uM, L3 larvae, value for this scoring time
[13] = 1 h, read-out: percent mortality 1 hr, 400 uM, L3 larvae, per scoring time
[14] = 2 h, read-out: percent mortality 2 hr, 400 uM, L3 larvae, per scoring time
[15] = 3 h, read-out: percent mortality 3 hr, 400 uM, L3 larvae, per scoring time
[16] = 4 h, read-out: percent mortality 4 hr, 400 uM, L3 larvae, per scoring time
[17] = 24 h, read-out: percent mortality 24 hr, 400 uM, L3 larvae, per scoring time
[18] = 48 h, read-out: Toxicity to Aedes aegypti larvae (mortality) 48 hours, 400 μM, L3 larvae, three independent experiments
[19] = 48 h, read-out: percent mortality 48 hr, 400 uM, L3 larvae, per scoring time
[20] = 72 h, read-out: Cumulative % Mortality (72 hrs), 400 uM, L3 larvae
[21] = 72 h, read-out: Toxicity to Aedes aegypti larvae (mortality) 72 hours, 400 μM, L3 larvae, three independent experiments
[22] = 72 h, read-out: percent mortality 72 hr, 400 uM, L3 larvae, per scoring time
[23] = 100 mM compound (Fipronil 500 μM), immersion, adult termite

Compound	% Mortality 24 hrs [1] [%]	% Mortality 48 hrs [1] [%]	% Mortality 72 hrs [1] [%]	% Mortality 120 hrs [1] [%]	% Mortality 240 hrs [1] [%]	% Mortality 24 hrs [2] [%]	% Mortality 48 hrs [2] [%]	inhibition at 10 µM (Isdop2 [5]) [%]	Toxicity to Aedes aegypti larvae (mortality) 24 hours (Ae. aegypti L3 larvae [6]) [%]	mortality at 400 µM (Ae. aegypti L3 larvae [7]; [12]) [%]	mortality at 400 µM (Ae. aegypti L3 larvae [7]; [13]) [%]	mortality at 400 µM (Ae. aegypti L3 larvae [7]; [14]) [%]	mortality at 400 µM (Ae. aegypti L3 larvae [7]; [15]) [%]	mortality at 400 µM (Ae. aegypti L3 larvae [7]; [16]) [%]	mortality at 400 µM (Ae. aegypti L3 larvae [7]; [17]) [%]	mortality at 400 µM (Ae. aegypti L3 larvae [7]; [18]) [%]	mortality at 400 µM (Ae. aegypti L3 larvae [7]; [19]) [%]	mortality at 400 µM (Ae. aegypti L3 larvae [7]; [20]) [%]	mortality at 400 µM (Ae. aegypti L3 larvae [7]; [21]) [%]	mortality at 400 µM (Ae. aegypti L3 larvae [7]; [22]) [%]	other results
COC(=O)N(C(=O)N1CO[C@@]2(C(=O)OC)Cc3cc(Cl)ccc3C2=N1)c1ccc(OC(F)(F)F)cc1 [Indoxacarb]	50	50	70	100	100	63	63	–	–	–	–	–	–	–	–	–	–	–	–	–	% Mortality 72 hrs [2]: 80%; % Mortality 120 hrs [2]: 100%
CN(C)CCCN1c2ccccc2Sc2ccc(Cl)cc21 [Chlorpromazine]	3	10	10	14	17	7	17	92	100	70	0	10	0	0	10	100	0	100	100	0	IC50 (AaDOP2 [3]): 17 nM; LT50 (Ae. aegypti L3 larvae [4]): 178 min; LC50 (Ae. aegypti L3 larvae [4]): 92000 nM; % Mortality 72 hrs [2]: 17%; % Mortality 120 hrs [2]: 20%; mortality at 400 µM (Ae. aegypti L3 larvae [7]; [11]): > 70%
NCCc1c[nH]cn1 [Histamine]	–	–	–	–	–	–	–	–	–	–	–	–	–	–	–	–	–	–	–	–	Stimulatory response (fold-over-basal) Isdop1 (Isdop1): 1.02 ± 0.10 fold-over-basal; Stimulatory response (fold-over-basal) Isdop2 (Isdop2 [8]): 1.55 ± 0.28 fold-over-basal
CN1CCN(C2=Nc3ccccc3Oc3ccc(Cl)cc32)CC1 [Loxapine, 2-Chloro-11-(4-methylpiperazin-1-yl)dibenzo[b,f][1,4]oxazepine]	–	–	–	–	–	–	–	93	97	30	0	30	0	0	0	100	0	100	100	0	% of the SCH23390 effect (AaDOP2 [9]): 97%; % inhibition of DA activity (Aedes cell-based assay screen) (AaDOP2 [9]): 97%; mortality at 400 µM (Ae. aegypti L3 larvae [7]; 3 h, read-out: mortality within three hours, 400 μM, L3 larvae): > 70%
CN1C2CCC1CC(OC(c1ccccc1)c1ccccc1)C2 (stereo not drawn) [Benztropine, (3-endo)-3-(diphenylmethoxy)-8-methyl-8-azabicyclo[3.2.1]octane]	–	–	–	–	–	–	–	84	100	0	0	20	0	0	40	100	0	100	100	0	–
CNCCCN1c2ccccc2CCc2ccc(Cl)cc21 [Norclomipramine]	–	–	–	–	–	–	–	–	40	–	–	–	–	–	–	–	–	–	–	–	IC50 (AaDOP2 [3]): 670 ± 35 nM; Toxicity to Aedes aegypti larvae (mortality) 48 hours (Ae. aegypti L3 larvae [6]): 63%; Toxicity to Aedes aegypti larvae (mortality) 72 hours (Ae. aegypti L3 larvae [6]): 70%
CN(C)CCCN1c2ccccc2CCc2ccc(Cl)cc21 [Clomipramine]	–	–	–	–	–	–	–	84	70	–	–	–	–	–	–	93	–	–	93	–	mortality at 400 µM (Ae. aegypti L3 larvae [7]; 24 h, read-out: Toxicity to Aedes aegypti larvae (mortality) 24 hours, 400 μM, L3 larvae, three independent experiments): 70 to 100%
NCCc1c[nH]c2ccc(O)cc12 [Serotonin, 5-hydroxytryptamine]	–	–	–	–	–	–	–	–	–	–	–	–	–	–	–	–	–	–	–	–	Stimulatory response (fold-over-basal) Isdop1 (Isdop1): 1.06 ± 0.08 fold-over-basal; Stimulatory response (fold-over-basal) Isdop2 (Isdop2 [8]): 1.52 ± 0.20 fold-over-basal
CCNC(=O)N1CCN(CCCC(c2ccc(F)cc2)c2ccc(F)cc2)CC1 [Amperozide, 4-[4,4-bis(4-fluorophenyl)butyl]-N-ethylpiperazine-1-carboxamide]	0	0	0	5	5	0	0	69	–	90	0	0	0	0	0	93	0	100	93	0	% of the SCH23390 effect (AaDOP2 [9]): 83%; % inhibition of DA activity (Aedes cell-based assay screen) (AaDOP2 [9]): 83%; IC50 (AaDOP2 [3]): 570 ± 110 nM; LT50 (Ae. aegypti L3 larvae [4]): 42 min; mortality of adult termites ([10]; in vivo): 70-100%; % Mortality 72 hrs [2]: 3%; % Mortality 120 hrs [2]: 7%; mortality at 400 µM (Ae. aegypti L3 larvae [7]; [11]): > 70%
NCCc1ccc(O)cc1 [Tyramine]	–	–	–	–	–	–	–	–	–	–	–	–	–	–	–	–	–	–	–	–	Stimulatory response (fold-over-basal) Isdop1 (Isdop1): 1.34 ± 0.11 fold-over-basal; Stimulatory response (fold-over-basal) Isdop2 (Isdop2 [8]): 1.27 ± 0.22 fold-over-basal
CN1CC2c3ccccc3Oc3ccc(Cl)cc3C2C1 (centres unmarked) [Asenapine]	5	5	10	10	10	17	20	–	100	70	20	10	0	0	0	100	0	100	100	0	IC50 (AaDOP2 [3]): 0.3 ± 0.06 nM; LT50 (Ae. aegypti L3 larvae [4]): 30 min; LC50 (Ae. aegypti L3 larvae [4]): 40000 nM; % Mortality 72 hrs [2]: 27%; % Mortality 120 hrs [2]: 27%; mortality at 400 µM (Ae. aegypti L3 larvae [7]; [11]): > 70%; mortality at 400 µM (Ae. aegypti L3 larvae [7]; […], read-out: percent mortality […], 400 uM, L3 larvae, per scoring time): 0%
N#Cc1nn(-c2c(Cl)cc(C(F)(F)F)cc2Cl)c(N)c1[S+]([O-])C(F)(F)F (centres unmarked) [Fipronil]	–	–	–	–	–	–	–	–	–	–	–	–	–	–	–	–	–	–	–	–	% Mortality 24 hrs [10, 23]: 90%; % Mortality 48 hrs [10, 23]: 100%; % Mortality 72 hrs [10, 23]: 100%; % Mortality 120 hrs [10, 23]: 100%; % Mortality 240 hrs [10, 23]: 100%
